# Where a name gives a salt, the structure may show the parent alone. Read-outs that look alike come from different tables or passages of the source. Where no end group is shown, it is not given here.
# Assays:
# C. difficile ATCC 630 [1] = experiment: microbe, parasite or virus in culture
# Description: (§1) The susceptibility of C. difficile isolates to the CPP-PNA conjugates or to the CPP alone was determined in vitro as described before with slight modifications ([43] [–] [45]). Briefly, the CPP-PNA conjugates, the CPP alone, and the antibiotics vancomycin and fidaxomicin were added in triplicate to the first row of ultra-low adhesion 96-well plates (Corning Inc., Corning, NY). A suspension of C. difficile equivalent to 0.5 McFarland solution was added to Mueller-Hilton II broth, which was then added to the ultra-low adhesion plate and then serially diluted. The plates were incubated anaerobically for 48 hours at 37°C. The minimum inhibitory concentration was defined as the lowest concentration of the CPP-PNA conjugate that could inhibit bacterial growth when observed visually.
# (§2) The MIC and MBC experiments were repeated twice.
# [2] = test system: clinical isolates of C. difficile; experiment: MIC against clinical isolates of C. difficile (summary); assay type: cell-based, Clostridioides difficile; settings: range over isolates of Table 3
# Description: as §1, §2
# C. difficile ATCC 43255 = experiment: MIC/MBC broth microdilution, C. difficile ATCC 43255; assay type: cell-based, Clostridioides difficile
# Description: as §1, §2
# [3] = test system: C. difficile ATCC BAA 1870; experiment: MIC/MBC broth microdilution, C. difficile ATCC BAA 1870; assay type: cell-based, Clostridioides difficile
# Description: as §1, §2
# C. difficile 630 [4] = experiment: Killing kinetics (time-kill assay); assay type: cell-based, Clostridioides difficile; settings: 1× MIC, within 24 hours of incubation, inoculum ~5 × 10^5 CFU/mL
# Description: The killing kinetics of the PNA construct was determined as described previously ([45] [–] [47]). Briefly, an overnight culture of C. difficile 630 was diluted 1:50 into fresh Mueller Hilton II broth (~10^5 CFU/mL) and added in triplicate to low adhesion microcentrifuge tubes containing either sterile water, the rpoA-TAT construct (1× MIC), or the positive controls vancomycin or fidaxomicin (1× MIC). The number of viable bacteria in each treatment group was determined by taking aliquots at 0, 4, 8, 12, 16, and 24 hours; these aliquots were then serially diluted and plated on BHIS agar plates. The plates were incubated anaerobically, and the number of colony-forming units for each treatment group was recorded the following day. The experiment was repeated twice.
# [5] = test system: Lactobacillus gasseri ATCC 19992; experiment: MIC gut microflora, Lactobacillus gasseri; assay type: cell-based
# Description: (§3) The susceptibility of gut microflora strains to the rpoA-TAT conjugate was determined using the broth microdilution assay, as described above. Briefly, bacterial suspensions of Bifidobacterium sp. and Bacteroides sp., in supplemented BHIS broth, and Lactobacilli strains, in MRS broth, were added to ultra-low adhesion 96-well plates and serially diluted. The MIC was recorded after 48 hours.
# [6] = test system: Lactobacillus rhamnosus ATCC 53103; experiment: MIC gut microflora, Lactobacillus rhamnosus; assay type: cell-based; settings: Lacticaseibacillus rhamnosus, ATCC53103, 48 h
# Description: as §3
# C. difficile 630 [7] = experiment: Effect of high bacterial inoculum on activity; assay type: cell-based, Clostridioides difficile; settings: 8 hours
# Description: The in vitro efficacy of the PNA constructs against a high inoculum size of C. difficile 630 was determined. Briefly, the PNA constructs and control antibiotics, at a concentration of 1× MIC, were added in triplicate to low adhesion microcentrifuge tubes (Corning Inc., Corning, NY). A high inoculum of C. difficile suspension equivalent to ~5 × 10^6 and ~5 × 10^7 cells was added to the tubes, which were incubated anaerobically at 37°C. The number of viable bacteria in each treatment group was determined by serial dilution and plating on BHIS agar plates at 8 hours and 24 hours post-incubation, respectively. The effect of a high inoculum on the activity of the PNA construct was repeated twice.
# C. difficile 1071 = experiment: MIC/MBC broth microdilution, C. difficile 1071; assay type: cell-based, Clostridioides difficile
# Description: as §1, §2
# [8] = test system: spore formation by C. difficile ATCC 630; experiment: Spore formation inhibition; assay type: cell-based, Clostridioides difficile; settings: 0.5× MIC, 12 hours
# Description: After the incubation period, the total bacterial count for each treatment group was determined by serial dilution and plating on BHIS agar plates supplemented with 0.1% taurocholic acid. To determine the presence of spores, the remaining bacterial culture from each treatment group was heated at 65°C for 30 minutes to ensure all vegetative cells were killed. The bacterial culture from each treatment group was then serially diluted and plated on BHIS agar plates supplemented with 0.1% taurocholic acid. The plates were incubated overnight, and the CFU counts for each treatment group were determined the following day.
# [9] = test system: C. difficile ATCC BAA 1870; experiment: Effect of pH on MIC/MBC, C. difficile ATCC BAA 1870; assay type: cell-based, Clostridioides difficile; settings: Clostridioides difficile
# Description: as §1, §2
# (§4) The susceptibility of C. difficile (ATCC 630 and ATCC BAA 1870) to the rpoA-TAT conjugate was evaluated over a pH range of 6 to 9 using the broth microdilution method ([43], [46] [–] [48]). The desired pH for susceptibility testing was attained by the addition of either 0.1 N HCL or 1 N NaOH to the media. The experiment was repeated twice.
# C. difficile 1082 = experiment: MIC/MBC broth microdilution, C. difficile 1082; assay type: cell-based, Clostridioides difficile
# Description: as §1, §2
# C. difficile 1079 = experiment: MIC/MBC broth microdilution, C. difficile 1079; assay type: cell-based, Clostridioides difficile
# Description: as §1, §2
# [10] = test system: Bifidobacterium longum subsp. longum HM 846; experiment: MIC gut microflora, Bifidobacterium longum; assay type: cell-based
# Description: as §3
# C. difficile ATCC 630 [11] = experiment: Effect of pH on MIC/MBC, C. difficile ATCC 630; assay type: cell-based, Clostridioides difficile; settings: Clostridioides difficile
# Description: as §1, §2, §4
# [12] = test system: toxin A and toxin B production by C. difficile 630; experiment: Toxin production inhibition (ELISA); assay type: cell-based, Clostridioides difficile; settings: sub-inhibitory concentrations 0.125×, 0.25×, 0.5× MIC, 8 hours, ELISA
# Description: After the incubation period, the bacterial count in each treatment group was determined by serial dilution and plating. Toxin content in the supernatant of each treatment group was determined using an enzyme-linked immunosorbent assay (ELISA, tgcBIOMICS) kit, as per the manufacturer’s protocol.
# [13] = test system: Bacteroides fragilis HM 714; experiment: MIC gut microflora, Bacteroides fragilis; assay type: cell-based; settings: Bacteroides fragilis, HM714, 48 h
# Description: as §3
# [14] = test system: Lactobacillus brevis ATCC 14869; experiment: MIC gut microflora, Lactobacillus brevis; assay type: cell-based; settings: Levilactobacillus brevis, ATCC14869, 48 h
# Description: as §3
# [15] = aliquots of wells without growth plated on BHIS agar, repeated twice
# [16] = broth microdilution, Mueller-Hilton II broth, anaerobic 48 hours 37°C, visual, triplicate, repeated twice
# [17] = broth microdilution, anaerobic 48 hours 37°C, visual, read-out: MIC
# [18] = plated on BHIS agar, read-out: MBC
compound,measurement,setting,value
KKKKKKKK-O-CATGGACAAAAC-NH2 [K8-rpoA],MBC,C. difficile ATCC 630 [1]; [15],32 µM
same,MIC,C. difficile ATCC 630 [1]; [16],32 µM
RXRRXRRXRRXRXB-O-CATGGACAAAAC-NH2 [(RXR)4XB -rpoA],MBC,C. difficile ATCC 630 [1]; [15],8 µM
same,MIC,C. difficile ATCC 630 [1]; [16],8 µM
GRKKKRRQRRRYK-O-CATACAATTCTC-NH 2 [rpoA-TAT mismatch],MIC against clinical isolates of C. difficile,[2],> 32 µM
same,MIC,C. difficile ATCC 43255; [17],>32 µM
same,MBC,C. difficile ATCC 43255; [18],>32 µM
same,MIC,[3]; [17],>32 µM
same,MBC,[3]; [18],>32 µM
same,MBC,C. difficile ATCC 630 [1]; [15],>32 µM
same,MIC,C. difficile ATCC 630 [1]; [16],>32 µM
KFFKFFKFFK-O-CATGGACAAAAC-NH2 [(KFF)3K-rpoA],MBC,C. difficile ATCC 630 [1]; [15],32 µM
same,MIC,C. difficile ATCC 630 [1]; [16],32 µM
"CN[C@H](CC(C)C)C(=O)N[C@H]1C(=O)N[C@@H](CC(N)=O)C(=O)N[C@H]2C(=O)N[C@H]3C(=O)N[C@H](C(=O)N[C@H](C(=O)O)c4cc(O)cc(O)c4-c4cc3ccc4O)[C@H](O)c3ccc(c(Cl)c3)Oc3cc2cc(c3O[C@@H]2O[C@H](CO)[C@@H](O)[C@H](O)[C@H]2O[C@H]2C[C@](C)(N)[C@H](O)[C@H](C)O2)Oc2ccc(cc2Cl)[C@H]1O [Vancomycin, Vancomycin hydrochloride]",reduction of bacterial burden,C. difficile 630 [4],~ 1.6 log10 CFU/mL
same,MIC,"[5]; Lactobacillus gasseri, ATCC19992, 48 h",1 µM
same,MIC,"[5]; broth microdilution, MRS broth, 48 hours, read-out: MIC",1 µM
same,MIC,[6],> 64 µM
same,Log CFU,"C. difficile 630 [7]; inoculum 5 × 10^6, 1× MIC",5.37
same,Log reduction,"C. difficile 630 [7]; inoculum 5 × 10^6, 1× MIC, vs no treatment",1
same,Log CFU,"C. difficile 630 [7]; inoculum 5 × 10^7, 1× MIC",7.03
same,MBC,"C. difficile 1071; Clostridioides difficile, 1071",2 µM
same,MIC,"C. difficile 1071; Clostridioides difficile, 1071, 48 h",2 µM
same,MBC,"C. difficile ATCC 43255; Clostridioides difficile, ATCC43255",4 µM
same,MIC,"C. difficile ATCC 43255; Clostridioides difficile, ATCC43255, 48 h",4 µM
same,inhibition of spore formation (in words),[8],did not inhibit spore formation
same,MBC,"[9]; BAA1870, pH 6",4 µM
same,MIC,"[9]; BAA1870, pH 6",4 µM
same,MBC,"[9]; BAA1870, pH 7",8 µM
same,MIC,"[9]; BAA1870, pH 7",4 µM
same,MBC,"[9]; BAA1870, pH 8",16 µM
same,MIC,"[9]; BAA1870, pH 8",8 µM
same,MBC,"C. difficile 1082; Clostridioides difficile, 1082",2 µM
same,MIC,"C. difficile 1082; Clostridioides difficile, 1082, 48 h",2 µM
same,MBC,"C. difficile 1079; Clostridioides difficile, 1079",2 µM
same,MIC,"C. difficile 1079; Clostridioides difficile, 1079, 48 h",2 µM
same,MIC,"[10]; Bifidobacterium longum, 48 h",2 µM
same,MIC,"[10]; broth microdilution, supplemented BHIS broth, 48 hours",2 µM
same,MBC,"C. difficile ATCC 630 [11]; ATCC630, pH 6",2 µM
same,MIC,"C. difficile ATCC 630 [11]; ATCC630, pH 6",2 µM
same,MBC,"C. difficile ATCC 630 [11]; ATCC630, pH 7",4 µM
same,MIC,"C. difficile ATCC 630 [11]; ATCC630, pH 7",4 µM
same,MBC,"C. difficile ATCC 630 [11]; ATCC630, pH 8",16 µM
same,MIC,"C. difficile ATCC 630 [11]; ATCC630, pH 8",8 µM
same,inhibition of toxin production (in words),[12],did not inhibit toxin production
same,MIC,[13],64 µM
same,MBC,"[3]; Clostridioides difficile, BAA1870",4 µM
same,MIC,"[3]; Clostridioides difficile, BAA1870, 48 h",4 µM
same,MIC,[14],> 64 µM
same,MBC,"C. difficile ATCC 630 [1]; Clostridioides difficile, ATCC630",2 µM
same,MIC,"C. difficile ATCC 630 [1]; Clostridioides difficile, ATCC630, 48 h",2 µM
RFRRFRRFRRFRXB-O-CATGGACAAAAC-NH2 [(RFR)4XB -rpoA],MBC,C. difficile ATCC 630 [1]; [15],8 µM
same,MIC,C. difficile ATCC 630 [1]; [16],8 µM
GRKKKRRQRRRYK [HIV-TAT],MIC,C. difficile ATCC 630 [1]; [16],>64 µM
